# Patent US8367659B2, “Oxazinyl isoflavonoid compounds, medicaments and use” (Marshall Edwards, Inc., priority 2007, dated 2013)
# What was measured:
# [1] = test system: NFκB-promoter activity in TNFa-stimulated THP-1 monocyte/macrophages; experiment: NFκB promoter activity in TNFα-stimulated THP-1 cells (beta-lactamase reporter); format: cell-based, human; conditions: for inhibition at 30 µM: Homo sapiens, THP-1, read-out: % inhibition compared to control; for inhibition at 30 µM / Inflammatory index: test compound 30 μM; for Inflammatory index: control 11.56 ± 0.49
# Protocol: The assay utilizes a genetically modified THP-1 cell line and GeneBLAzer® beta-lactamase technology (Invitrogen Corp). The human THP-1 monocyte/macrophages contain a stably-transfected beta-lactamase reporter gene under control of the NFκB response element They respond to stimulation with TNF-a, which leads to activation of the NFκB signaling pathway. Co-incubation of cells with TNF-a and test material allows quantitative determination of the ability of test material to inhibit TNFa-stimulated beta-lactamase production. Inflammatory index is calculated as the ratio of beta-lactamase product to beta-lactamase substrate. In brief, genetically modified THP-1 cells were seeded into wells of a 96-well plate (50×10^3 cells/well) in the presence of RPMI 1640 medium (70 μl). TNFα was added to each well (10 μl) to give a final concentration of 7.5 ng/ml. Dialyzed bovine serum was added (10 μl). Compounds dissolved in DMSO (10 μL) were then added (5 wells for each compound). Each plate contained a no-cell control (4 wells), a no-serum control (4 wells) and two serum controls. Plates were incubated for 5 h at 37° C. to allow for NFκB-stimulated beta-lactamase production. LiveBLAzer™ FRET B/G Substrate (CCF4-AM) substrate was then added to assay. CCF4-AM is a Forster resonance energy transfer (FRET) based substrate for beta-lactamase developed by Invitrogen Corp. Once CCFA-AM enters a cell, it is converted to negatively charged CCF4 by endogenous esterases. Excitation of this substrate at 409 nm leads to efficient FRET between the coumarin and fluorescein moieties, resulting in a green fluorescence detectable at 530 nm. The presence of beta-lactamase leads to cleavage of CCF4 and results in a loss of FRET, resulting in a robust blue fluorescent signal detectable at 460 nm. Thus, activity of beta-lactamase (a marker of NFκB-promoter activity) is measured as a product to substrate ratio (blue/green fluorescence ratio: 460 nm/530 nm). The determination of inflammatory index has a within-plate CV of 2.1% and a between-plate CV of 8.9% This comparative study was conducted according to the assay method set out in the example at Section 2.4 above.
# red blood cells (RBC) = experiment: Peroxyl radical (AAPH)-induced red blood cell lysis; format: cell-based; conditions: for Time taken to reach half-lysis, time: test compounds at 10 μM, vehicle 40.0
# Protocol: Freshly collected heparinised venous blood (10 ml, on ice) was aliquotted into 1.8 ml sterile Eppendorf tubes and centrifuged for 10 minutes at 2600 rpm at 4° C. Plasma and buffy coat layers were removed (approximately […]) and packed red blood cells (RBC) were then washed by the addition of […], ice cold PBS. This washing procedure was repeated twice. Packed RBC were resuspended by the addition of 900 ml of ice-cold, sterile PBS (and termed RBC stock). RBC stocks were stored at 4° C. for a maximum of three days. All working suspensions of RBC were prepared fresh daily by diluting […] of RBC stock into 10 ml of ice-cold, sterile PBS and […] added to each well.
# Stocks of AAPH were freshly prepared for individual experiments as follows. AAPH (1.22 gm) was dissolved in 7.5 ml of PBS to yield a 4× stock at 600 mM and […] aliquots (final concentration of 150 mM) were then added to each well to initiate the lysis assay. Stock solutions of test compounds (40 mM in 100% DMSO) were diluted in sterile PBS to yield final concentrations of […] per well. Appropriate controls were included in each experiment. All compound dilutions were adjusted to give final DMSO concentrations in each well of 0.25%. Peroxy-induced RBC lysis assays were performed in 96-flat bottom well microtitre plates with a total volume of […] per well. Turbidity of RBC suspensions were monitored using a Tecan microplate reader at 690 nm (37° C.) with gentle vortexing. Assays were performed in quadruplicate and readings were taken every 5 minutes over 5 hours. RBC lysis curves were constructed by plotting absorbance (mean of 4 readings) against time. Time to half-lysis was calculated by taking the highest absorbance reading (no lysis) and the lowest absorbance reading (maximum lysis). The sum of these two readings divided by two gave the absorbance at half-lysis. Simple regression analysis was used to calculate the time at which half-lysis absorbance occurred.
# This comparative study was conducted according to the assay method set out in the example at Section 3.3 above.
# unstimulated lymphocytes = experiment: Unstimulated lymphocytes, viable cell number (MTT); format: cell-based, Skh-1:HR 1 (hairless) mice; conditions: 10 μM; absence of mitogenic stimulation
# Protocol: Male Skh-1:HR 1 (hairless) mice, approximately six weeks old were killed by cervical dislocation. Single cell suspensions were made from the spleen and erythrocytes were lysed in buffer (0.14 M NH4Cl, 17 mM Tris, pH 7.2). The remaining splenocytes were cultured in RPMI-1640 (Gibco) supplemented with 10% (v:v) FBS, 200 mM L-glutamine, penicillin/streptomycin and […] 2-mercaptoethanol. Splenocytes were added to quadruplicate wells containing either concanavalin A (ConA, Sigma-Aldrich—0.4 μg/well), LPS (Sigma-Aldrich—1 μg/well) or no mitogen, as well 10 μM of test compound in DMSO. Samples were analysed after 3 days incubation at 37° C. in 5% CO2 in air. Methylthiazoletetrazolium (MTT) is bioreduced by viable cells into a coloured formazan product that is soluble in DMSO. Thus the quantity of formazan product is directly proportional to the number of living cells in culture, and can be measured using a spectrophotometer at 570 nm. MTT was added to each well, incubated for a further 4 hrs and then colour developed with 0.04 N HCl in isopropanol. Culture supernatants were stored after collection at −80° C. and analysed by ELISA (BD Biosciences) for IFN-γ (a Th-1 cytokine) and for T cells alone, IL-6 (a Th-2 cytokine).
# HT29 = experiment: Anti-cancer activity, HT-29 colon adenocarcinoma cells (MTT); format: cell-based; conditions: Homo sapiens, HT-29, 120 h, 5 days, read-out: IC50 μM, HT29 Colorectal
SMILES,inhibition at 30 µM [1],Inflammatory index [1],"Time taken to reach half-lysis, time (red blood cells (RBC); Table 8)","Time taken to reach half-lysis, time (red blood cells (RBC); comparative, Table 14)",reduction of viable cell numbers (unstimulated lymphocytes),IC50 (HT29),"antioxidant activity, AAPH-induced time to half-lysis of red blood cells (red blood cells (RBC))","NFκB inhibition ([1]; 30 μM, FIG. 19)"
"Oc1ccc(C2=Cc3cc4c(cc3OC2)OCN(Cc2ccccc2)C4)cc1 [Compound 1, 4-(3-Benzyl-2,3,4,8-tetrahydrochromeno[6,7-e][1,3]oxazin-7-yl)phenol]",45.5%,6.31 ± 0.36,141.6 min,141.6 min,approximately 50%,20.6 ± 2.1 µM,–,–
"CC(c1ccccc1)N1COc2cc3c(cc2C1)C=C(c1ccc(O)cc1)CO3 (stereo not drawn) [Compound 2, 4-(3-(1-Phenylethyl)-2,3,4,8-tetrahydrochromeno[6,7-e][1,3]oxazin-7-yl)phenol]",34.8%,7.54 ± 0.17,124.3 min,–,approximately 50%,11.8 ± 0.7 µM,delaying the AAPH-induced time to half-lysis,–
"Oc1cccc(C2=Cc3ccc(O)cc3OC2)c1 [Compound 37-DHE, 3′,7-dihydroxy-isoflav-3-ene, reference compound]",–,–,–,126.6 min,–,–,delaying the AAPH-induced time to half-lysis,inhibited NFκB
